Laboratory results from PubChem BioAssay AID2060485 (Molecular Pharmacology Branch, DTP, NCI, 2025).

Tested on: A375 multi-cell spheroids with HUVEC/MSC, viability
Assay: Anticancer human tumor A375 cell line growth inhibition [GQUAD];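 also: spheroids exposed to compounds for seven days before readout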
Conditions: for IC50: curve of first compound; for viability, T/C: stronger effect = lower value
How it was run: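 Multi-cell-type spheroids of tumor cells with HUVEC and mesenchymal stem cells, treated with drug combinations. Concentrations descend in half-log steps from near clinical Cmax, or from 10 microM where Cmax is unknown; viability read-out.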

Compound: C=CCn1c(=O)c2cnc(Nc3ccc(N4CCN(C)CC4)cc3)nc2n1-c1cccc(C(C)(C)O)n1 + Cc1cnc(CNC(=O)c2c(=O)c3ccc(N4CCCN(C)CC4)nc3n3c2sc2ccccc23)cn1
- IC50 (second compound 0.0316 µM): 900 nM
- IC50 (second compound 0.1 µM): 408 nM
- IC50 (second compound 0.316 µM): 96.7 nM
- IC50 (second compound 1 µM): < 31.6 nM
- IC50 (second compound 3.16 µM): < 31.6 nM
- IC50 (second compound 10 µM): < 31.6 nM
- viability, T/C (second compound 0.0316 µM, first compound 0.0316 µM): 93.1%
- viability, T/C (second compound 0.0316 µM, first compound 0.1 µM): 95.3%
- viability, T/C (second compound 0.0316 µM, first compound 0.316 µM): 81%
- viability, T/C (second compound 0.0316 µM, first compound 1 µM): 48.3%
- viability, T/C (second compound 0.0316 µM, first compound 3.16 µM): 12.3%
- viability, T/C (second compound 0.0316 µM, first compound 10 µM): 9.5%
- viability, T/C (second compound 0.1 µM, first compound 0.0316 µM): 70.2%
- viability, T/C (second compound 0.1 µM, first compound 0.1 µM): 69.7%
- viability, T/C (second compound 0.1 µM, first compound 0.316 µM): 50.6%
- viability, T/C (second compound 0.1 µM, first compound 1 µM): 38%
- viability, T/C (second compound 0.1 µM, first compound 3.16 µM): 15.1%
- viability, T/C (second compound 0.1 µM, first compound 10 µM): 9.57%
- viability, T/C (second compound 0.316 µM, first compound 0.0316 µM): 57.6%
- viability, T/C (second compound 0.316 µM, first compound 0.1 µM): 50.6%
- viability, T/C (second compound 0.316 µM, first compound 0.316 µM): 36.7%
- viability, T/C (second compound 0.316 µM, first compound 1 µM): 28.1%
- viability, T/C (second compound 0.316 µM, first compound 3.16 µM): 14.9%
- viability, T/C (second compound 0.316 µM, first compound 10 µM): 10.7%
- viability, T/C (second compound 1 µM, first compound 0.0316 µM): 37.1%
- viability, T/C (second compound 1 µM, first compound 0.1 µM): 33.7%
- viability, T/C (second compound 1 µM, first compound 0.316 µM): 31.6%
- viability, T/C (second compound 1 µM, first compound 1 µM): 25.3%
- viability, T/C (second compound 1 µM, first compound 3.16 µM): 16.1%
- viability, T/C (second compound 1 µM, first compound 10 µM): 11.4%
- viability, T/C (second compound 3.16 µM, first compound 0.0316 µM): 32%
- viability, T/C (second compound 3.16 µM, first compound 0.1 µM): 33.6%
- viability, T/C (second compound 3.16 µM, first compound 0.316 µM): 27.2%
- viability, T/C (second compound 3.16 µM, first compound 1 µM): 25.7%
- viability, T/C (second compound 3.16 µM, first compound 3.16 µM): 17%
- viability, T/C (second compound 3.16 µM, first compound 10 µM): 12%
- viability, T/C (second compound 10 µM, first compound 0.0316 µM): 28.8%
- viability, T/C (second compound 10 µM, first compound 0.1 µM): 28.9%
- viability, T/C (second compound 10 µM, first compound 0.316 µM): 26.8%
- viability, T/C (second compound 10 µM, first compound 1 µM): 21.6%
- viability, T/C (second compound 10 µM, first compound 3.16 µM): 16.8%
- viability, T/C (second compound 10 µM, first compound 10 µM): 13.8%
